Experiments:
Assay type in all cases: functional
Rattus norvegicus [1] = assay: Total iron output induced by the compound (oral administration) and bile duct cannulated rat and the drug-promoted iron excretion was monitored in the bile at 24 hr
Rattus norvegicus [2] = assay: Total iron output induced by the compound (oral administration) and bile duct cannulated rat and the drug-promoted iron excretion was monitored in the bile at 18 h
Rattus norvegicus [3] = assay: Total iron output induced by the compound (oral administration) and bile duct cannulated rat and the drug-promoted iron excretion was monitored in the bile at 9 h
Rattus norvegicus [4] = assay: Total iron output induced by the compound (oral administration) and bile duct cannulated rat and the drug-promoted iron excretion was monitored in the bile at 15 hr; note: test concentration or dose not given here
Rattus norvegicus [5] = assay: Total iron output induced by the compound (oral administration) and bile duct cannulated rat and the drug-promoted iron excretion was monitored in the bile at 3h; note: test concentration or dose not given here
Rattus norvegicus [6] = assay: Total iron output induced by the compound (oral administration) and bile duct cannulated rat and the drug-promoted iron excretion was monitored in the urine at 24 hr
Rattus norvegicus [7] = assay: Total iron output induced by the compound (oral administration) and bile duct cannulated rat and the drug-promoted iron excretion was monitored in the bile at 21 hr; note: test concentration or dose not given here
Rattus norvegicus [8] = assay: Total iron output induced by the compound (oral administration) and bile duct cannulated rat and the drug-promoted iron excretion was monitored in the bile at 12 hr
Rattus norvegicus [9] = assay: Total iron output induced by the compound (oral administration) and bile duct cannulated rat and the drug-promoted iron excretion was monitored in the bile at 6 hr; note: test concentration or dose not given here
Rattus norvegicus [10] = assay: Total iron output induced by the compound (sc administration) and bile duct cannulated rat and the drug-promoted iron excretion was monitored in the bile at 9 h
Rattus norvegicus [11] = assay: Total iron output induced by the compound (sc administration) and bile duct cannulated rat and the drug-promoted iron excretion was monitored in the bile at 3h
Rattus norvegicus [12] = assay: Total iron output induced by the compound (sc administration) and bile duct cannulated rat and the drug-promoted iron excretion was monitored in the bile at 6 hr
Rattus norvegicus [13] = assay: Total iron output induced by the compound (sc administration) and bile duct cannulated rat and the drug-promoted iron excretion was monitored in the bile at 18 h
Rattus norvegicus [14] = assay: Total iron output induced by the compound (sc administration) and bile duct cannulated rat and the drug-promoted iron excretion was monitored in the bile at 21 hr
Rattus norvegicus [15] = assay: Total iron output induced by the compound (sc administration) and bile duct cannulated rat and the drug-promoted iron excretion was monitored in the bile at 12 hr
Rattus norvegicus [16] = assay: Total iron output induced by the compound (sc administration) and bile duct cannulated rat and the drug-promoted iron excretion was monitored in the bile at 15 hr
Rattus norvegicus [17] = assay: Total iron output induced by the compound (sc administration) and bile duct cannulated rat and the drug-promoted iron excretion was monitored in the urine at 24 hr
Rattus norvegicus [18] = assay: Total iron output induced by the compound (sc administration) and bile duct cannulated rat and the drug-promoted iron excretion was monitored in the bile at 24 hr

| SMILES | Total iron output (Rattus norvegicus [1]) [µg/kg] | Total iron output (Rattus norvegicus [2]) [µg/kg] | Total iron output (Rattus norvegicus [3]) [µg/kg] | Total iron output (Rattus norvegicus [4]) [µg/kg] | Total iron output (Rattus norvegicus [5]) [µg/kg] | Total iron output (Rattus norvegicus [6]) [µg/kg] | Total iron output (Rattus norvegicus [7]) [µg/kg] | Total iron output (Rattus norvegicus [8]) [µg/kg] | Total iron output (Rattus norvegicus [9]) [µg/kg] | Total iron output (Rattus norvegicus [10]) [µg/kg] | Total iron output (Rattus norvegicus [11]) [µg/kg] | Total iron output (Rattus norvegicus [12]) [µg/kg] | Total iron output (Rattus norvegicus [13]) [µg/kg] | Total iron output (Rattus norvegicus [14]) [µg/kg] | Total iron output (Rattus norvegicus [15]) [µg/kg] | Total iron output (Rattus norvegicus [16]) [µg/kg] | Total iron output (Rattus norvegicus [17]) [µg/kg] | Total iron output (Rattus norvegicus [18]) [µg/kg] |
| --- | --- | --- | --- | --- | --- | --- | --- | --- | --- | --- | --- | --- | --- | --- | --- | --- | --- | --- |
| COC(=O)[C@H]1N=C(c2ncccc2O)O[C@@H]1C | 60.8 | 49.4 | 20.2 | 43.7 | 11.3 | 7.6 | 55.1 | 37.3 | 21.3 |  |  |  |  |  |  |  |  |  |
| O=C([O-])[C@@H]1CSC(c2ncccc2O)=N1.[Na+] | 81.9 | 65.3 | 40.7 | 56.3 | 9 | 21 | 74.8 | 48.5 | 28.1 |  |  |  |  |  |  |  |  |  |
| C[C@]1(C(=O)O)CSC(c2ncccc2O)=N1 [DESFERRITHIOCIN] | 268.5 | 253.7 | 205.3 | 245.6 | 64.5 | 27 | 263.1 | 234.8 | 143 |  |  |  |  |  |  |  |  |  |
| C[C@]1(C(=O)[O-])CSC(c2ncccc2O)=N1.[Na+] [DESFERRITHIOCIN SODIUM] | 159.3 | 146.8 | 111.7 | 135.9 | 21.8 | 38.43 | 153.2 | 125.8 | 70 |  |  |  |  |  |  |  |  |  |
| C[C@]1(C(=O)NCCCCNCCCNC(=O)[C@@]2(C)CSC(c3ncccc3O)=N2)CSC(c2ncccc2O)=N1 | 92.8 | 74 | 45.2 | 65.8 | 13.2 | 18 | 82.2 | 56.6 | 30 |  |  |  |  |  |  |  |  |  |
| CC(=O)N(O)CCCCCNC(=O)CCC(=O)N(O)CCCCCNC(=O)CCC(=O)N(O)CCCCCN [DEFEROXAMINE] | 135 | 119.8 | 76.8 | 110.8 | 14.7 | 16.5 | 128.7 | 97.1 | 43.9 | 152.8 | 43.6 | 105.9 | 210.7 | 219.8 | 173.9 | 196.2 | 49.2 | 228.4 |
| O=C(O)[C@@H]1CSC(c2ncccc2O)=N1 | 217.2 | 201.3 | 154 | 194 | 28.7 | 14.1 | 209.6 | 182.3 | 98.2 |  |  |  |  |  |  |  |  |  |
| COC(=O)[C@@H]1CSC(c2ncccc2O)=N1 | 93.3 | 81 | 59.9 | 74.7 | 42.9 | 18.7 | 85.3 | 68.7 | 53.3 |  |  |  |  |  |  |  |  |  |
| O=C([O-])[C@@H]1CSC(c2ccccc2O)=N1.[Na+] | 246.9 | 226.8 | 143.8 | 210.6 | 28.6 | 18.67 | 238.1 | 184.9 | 91.6 |  |  |  |  |  |  |  |  |  |
| O=C([O-])[C@@H]1CSC(c2ccccn2)=N1.[Na+] | 62.1 | 49.6 | 26.2 | 42.2 | 7.1 | 11.9 | 56.8 | 34.9 | 16.6 |  |  |  |  |  |  |  |  |  |
| O=C(O)[C@@H]1CSC(c2ccccn2)=N1 | 71.9 | 56.2 | 31.2 | 47.1 | 11.8 | 14.2 | 64.1 | 39.5 | 22.5 |  |  |  |  |  |  |  |  |  |

Source: ChEMBL document CHEMBL1125282, “Evaluation of desferrithiocin and its synthetic analogues as orally effective iron chelators” (1991)
